According to patent US10981932B2, “Macrocyclic indole derivatives” (Bayer Aktiengesellschaft, priority 2016, dated 2021):
“And” between values parts separate entries of the source, which are not always exact repeats. Identical values can stand only once. Counter-ions that a name gives are not always drawn.

Assays:
SUDHL10 [1] = test: Anti-proliferative effect (CellTiter-Glo, 72 h), SUDHL10; assay type: cell-based; details: SUDHL10 cells, antiproliferation, 72 h incubation, median, read-out: Antiproli SUDHL10 [M] (median)
Summary of the method: (§1)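 Cells plated and incubated with compounds for 72 h at 37 °C, with a parallel day 0 reference plate for time-zero signal. Viability read by CellTiter-Glo luminescence after 10 min, measured identically on the day 0 and 72 h plates.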

SUDHL10 [2] = test: Induction of caspase-3/7 activity (Caspase-Glo 3/7), SUDHL10; assay type: cell-based; details: caspase-3/7 induction, SUDHL10 cells, 3 h treatment; median
Summary of the method: (§2)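 DLBCL lines SUDHL5 and SUDHL10 treated with compounds for 3 h at 37 °C; caspase-3/7 activity read by Caspase-Glo 3/7 luminescence. Medium-only background subtracted; EC50 fitted with bottom fixed at 1 and top fixed at the reference compound's maximal induction.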

SUDHL10 [3] = test: Induction of cytotoxicity (CellTiter-Glo, 5 h), SUDHL10; details: read-out: Cytotox SUDHL10 [M] (median); SUDHL10 cells, cytotoxicity induction, CellTiter-Glo, 5 h incubation, median
OPM2 = test: Anti-proliferative effect (CellTiter-Glo, 72 h), OPM2; assay type: cell-based; details: OPM2 cells, median, read-out: IC50 antiproliferation assay OPM2 [M] (median)
Summary of the method: as §1

A2780 = test: Anti-proliferative effect (CellTiter-Glo, 72 h), A2780; assay type: cell-based; details: A2780 cells, median, read-out: IC50 antiproliferation assay A2780 [M] (median)
Summary of the method: as §1

SUDHL5 [4] = test: Induction of caspase-3/7 activity (Caspase-Glo 3/7), SUDHL5; assay type: cell-based; details: caspase-3/7 induction, SUDHL5 cells, 3 h treatment; median
Summary of the method: as §2

MCL-1 = MCL-1 (Homo sapiens, UniProt Q07820); test: Protein-protein interaction assay MCL-1/Noxa BH3 peptide (MCL-1 assay), TR-FRET; assay type: binding; details: MBP-MCL-1 / Noxa BH3-derived peptide, median
Chain of MCL-1 (Q07820 whole entry): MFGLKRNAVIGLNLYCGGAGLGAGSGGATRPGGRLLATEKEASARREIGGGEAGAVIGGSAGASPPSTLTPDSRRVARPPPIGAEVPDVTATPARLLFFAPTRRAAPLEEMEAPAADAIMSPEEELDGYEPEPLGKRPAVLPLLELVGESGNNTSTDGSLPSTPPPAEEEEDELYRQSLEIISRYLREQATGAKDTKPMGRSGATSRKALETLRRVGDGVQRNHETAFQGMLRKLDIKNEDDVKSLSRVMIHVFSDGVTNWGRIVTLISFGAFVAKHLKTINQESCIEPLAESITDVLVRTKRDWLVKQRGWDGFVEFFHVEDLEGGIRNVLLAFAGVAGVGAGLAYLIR
Summary of the method: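 IC50 came from a 4-parameter fit of the normalized 665/620 nm TR-FRET ratio (anti-MBP Eu-cryptate/streptavidin-XL665). Compounds (0.1 nM–20 μM, duplicates) were preincubated 10 min at 22 °C with 1 nM MBP-MCL-1 in pH 7 Tris/NaCl/KF buffer, then read after 1 h at 22 °C plus overnight at 4 °C.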

SUDHL5 [5] = test: Induction of cytotoxicity (CellTiter-Glo, 5 h), SUDHL5; details: read-out: Cytotox SUDHL5 [M] (median); SUDHL5 cells, cytotoxicity induction, CellTiter-Glo, 5 h incubation, median
SUDHL5 [6] = test: Anti-proliferative effect (CellTiter-Glo, 72 h), SUDHL5; assay type: cell-based; details: SUDHL5 cells, antiproliferation, 72 h incubation, median, read-out: Antiproli SUDHL5 [M] (median)
Summary of the method: as §1

| IC50 (SUDHL10 [1]) | EC50 (SUDHL10 [2]) | IC50 (A2780) | EC50 (SUDHL5 [4]) | IC50 (MCL-1) | IC50 (SUDHL5 [6]) | SMILES | IC50 (SUDHL10 [3]) | IC50 (OPM2) | IC50 (SUDHL5 [5]) |
| --- | --- | --- | --- | --- | --- | --- | --- | --- | --- |
| 5.59e-06 M | 23 µM | 1.43e-05 M | 21.3 µM | 0.0323 µM | 1.15e-05 M | Cn1nc(COc2ccc(N3CCN(C(=O)C4CC4)CC3)cc2)c2c1COCCCCn1c(C(=O)O)c(CCCOc3cccc4ccccc34)c3cccc-2c31 (single isomer, unassigned; enantiomer 2) [Example 1-23, 3-({4-[4-(cyclopropylcarbonyl)piperazin-1-yl)phenoxy]methyl}-1-methyl-7-[3-(naphthalen-1-yloxy)propyl]-1,10,11,12,13,15-hexahydropyrazolo[4′,3′:9,10][1,6]oxazacycloundecino[8,7,6-hi]indole-8-carboxylic acid (enantiomer 2)] | > 3.3e-05 M | 1.7e-05 M | 2.45e-05 M |
| 1.18e-05 M | 22.9 µM and 20.4 µM and > 33 µM | 1.82e-05 M | > 33 µM | 0.0492 µM | 1.63e-05 M | Cc1nn(C)c2c1-c1cccc3c(CCCOc4cccc5ccccc45)c(C(=O)O)n(c13)CCCN(C)C2 (single isomer, unassigned; enantiomer 2) [Example 1-32, 7,9,11-trimethyl-1-[3-(naphthalen-1-yloxy)propyl]-4,5,6,7,8,9-hexahydropyrazolo[3′,4′:7,8][1,5]diazecino[9,10,1-hi]indole-2-carboxylic Acid-N-ethylethanamine Salt (Enantiomer 2)] | 3.23e-05 M | 2.76e-05 M | > 3.3e-05 M |
| 1.49e-05 M | > 33 µM | > 3.3e-05 M | > 33 µM | 0.0751 µM | 2.3e-05 M | Cc1c2c(nn1C)COCCCCn1c(C(=O)O)c(CCCOc3cccc4ccccc34)c3cccc-2c31 (single isomer, unassigned; enantiomer 2) [Example 1-38, (−)-2,3-dimethyl-7-[3-(naphthalen-1-yloxy)propyl]-2,10,11,12,13,15-hexahydropyrazolo[4′,3′:9,10][1,6]oxazacycloundecino[8,7,6-hi]indole-8-carboxylic Acid (Enantiomer 2)] | > 3.3e-05 M | 3.22e-05 M | > 3.3e-05 M |
| 6.21e-06 M | > 33 µM and 30.6 µM | 1.38e-05 M | 28.4 µM | 0.0359 µM | 9.42e-06 M | Cc1nn(C)c2c1-c1cccc3c(CCCOc4cccc5ccccc45)c(C(=O)O)n(c13)CCCN(c1ccc(N3CCOCC3)cc1)C2 (single isomer, unassigned; enantiomer 2) [Example 1-100, 9,11-Dimethyl-7-[4-(morpholin-4-yl)phenyl]-1-[3-(1-naphthyloxy)propyl]-4,5,6,7,8,9-hexahydropyrazolo[3′,4′:7,8][1,5]diazecino[9,10,1-hi]indole-2-carboxylic Acid (Enantiomer 2)] | > 3.3e-05 M and 3.29e-05 M | 1.94e-05 M | > 3.3e-05 M |
| 2.58e-06 M | 15.3 µM | 7.54e-06 M | 15.3 µM | 0.0581 µM | 4.04e-06 M | CCS(=O)(=O)N1CCN(c2ccc(N3CCCn4c(C(=O)O)c(CCCOc5cccc6ccccc56)c5cccc(c54)-c4c(C)nn(C)c4C3)cc2)CC1 (single isomer, unassigned; enantiomer 2) [Example 1-110, 7-{4-[4-(Ethylsulfonyl)piperazin-1-yl]phenyl}-9,11-dimethyl-1-[3-(1-naphthyloxy)propyl]-4,5,6,7,8,9-hexahydropyrazolo[3′,4′:7,8][1,5]diazecino[9,10,1-hi]indole-2-carboxylic Acid (Enantiomer 2)] | 1.69e-05 M | 8.62e-06 M | 1.53e-05 M |
